Data set [1] concerns MCF-7 breast cancer cells. Kind of data set: Antiproliferative effects, crystal violet cell biomass assay, MCF-7. The data set is classed as cell-based. Conditions: for IC50: 72 h incubation, crystal violet. Here is the method:
(§1) The growth inhibitory effects of ASA, Zeise’s salt as well as the thereof derived complexes 1a–4a were investigated in vitro against the HT-29 and the MCF-7 cell lines. Thereby, an already published crystal violet assay was employed, in which the cell biomass reduced by the substances was determined as parameter. Cisplatin was applied as positive control.
(§2) The HT-29 colon carcinoma and the MCF-7 breast cancer cell lines were obtained from the cell line service (CLS, Eppelheim, Germany). The HT-29 and the MCF-7 cells were cultivated as a monolayer in Dulbecco’s Modified Eagle Medium (DMEM) containing glucose (4.5 g/L) and lacking phenol red (GE Healthcare, Little Chalfont, UK), supplemented with fetal calf serum (FCS; 10%; Biochrom) and L-glutamine (584 mg/L; GE Healthcare). The cells were cultured in a humidified atmosphere (5% CO2/95% air) at 37 °C and were passaged regularly twice a week. The cell lines were characterized by typing short tandem repeats and routinely monitored for mycoplasma infection.
(§3) The effects of the newly synthesized substances on the cell biomass were determined in vitro while employing a crystal violet assay. The testing was performed following a modified protocol, as previously published. Exponentially growing HT-29 and MCF-7 cells were seeded in 96-well tissue culture plates with a density of 3 × 10^3 and 2 × 10^3 cells, respectively, in 100 µL of completed DMEM per well in quadruples. The plates were kept in a humidified atmosphere (5% CO2/95% air) at 37 °C for 24 h prior to the addition of completed medium containing the vehicle DMF, the positive control Cisplatin, and the compounds to be tested, respectively. After 72 h of incubation, the medium was removed, the cells were washed with PBS and fixed using a solution of glutaraldehyde in PBS (1%, v/v). The cell biomass was examined by staining the chromatin of adherent cells with crystal violet, extraction of the stain with ethanol (70%, v/v) and following measurement of absorbance (λ = 590 nm). The cell viability is given as percentage of cell viability of the vehicle treated control, which was set to 100%. The IC50 values represent the mean ± standard error of mean of ≥2 independent experiments and they were calculated with Prism 7.0 (GraphPad, San Diego, CA, USA) using nonlinear regression and decadal logarithm of the inhibitor versus variable slope equation. The top constraint was set to 100%.

Data set [2] concerns the target T1, ovine COX-1 (Ovis aries, UniProt P05979).
T1 construct: purchased Cayman Chemicals
T1 sequence (P05979 25-600): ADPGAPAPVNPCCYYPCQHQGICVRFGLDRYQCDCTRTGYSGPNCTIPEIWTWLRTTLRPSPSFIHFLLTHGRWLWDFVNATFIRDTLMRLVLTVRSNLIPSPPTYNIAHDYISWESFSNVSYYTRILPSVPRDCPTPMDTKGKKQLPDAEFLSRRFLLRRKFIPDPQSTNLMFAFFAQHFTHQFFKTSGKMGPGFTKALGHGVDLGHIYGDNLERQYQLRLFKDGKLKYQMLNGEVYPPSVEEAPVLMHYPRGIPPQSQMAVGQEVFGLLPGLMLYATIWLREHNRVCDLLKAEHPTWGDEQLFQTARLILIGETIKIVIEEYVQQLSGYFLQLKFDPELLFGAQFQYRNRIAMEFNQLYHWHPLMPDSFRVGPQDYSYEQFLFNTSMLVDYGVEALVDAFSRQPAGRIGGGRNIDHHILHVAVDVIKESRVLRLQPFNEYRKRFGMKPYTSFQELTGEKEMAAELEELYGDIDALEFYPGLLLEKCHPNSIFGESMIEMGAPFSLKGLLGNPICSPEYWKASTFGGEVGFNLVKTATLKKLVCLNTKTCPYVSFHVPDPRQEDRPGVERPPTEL
Briefly: COX-1 isoenzyme inhibition (COX Inhibitor Screening Assay, enzyme immunoassay). The data set is classed as biochemical. The conditions noted are these: 10 µM, incubation 10 min, isolated enzyme. Here is the method: (§4) The impact of the compounds (10 µM) to inhibit the isoenzymes COX-1 and COX-2, respectively, was investigated (Figure 5).
(§5) The inhibition of both isolated isoenzymes, ovine COX-1 and ovine COX-2, respectively, were investigated at a concentration of 10 µM of the respective substances while employing an enzyme immunoassay (COX Inhibitor Screening Assay, Cayman Chemicals, Ann Arbor, MI, USA). The conduction of the assay was performed following the manufacturer’s protocol. Thereby, the isoenzymes were incubated with the particular compounds for exactly 10 min. The values express the mean of duplicate determinations and they represent the mean ± standard deviation of ≥2 independent experiments. The untreated control was set to 0% inhibition.
(§6) Figure 5 Inhibition of isolated ovine COX-1 and COX-2. Values are given as % COX inhibition calculated from initial activity of vehicle treated enzyme and represent the mean ± standard deviation of ≥2 independent experiments.

Data set [3] has as its target T2, ovine COX-2 (Ovis aries, UniProt P79208).
T2 construct: purchased Cayman Chemicals
T2 sequence (P79208 17-603): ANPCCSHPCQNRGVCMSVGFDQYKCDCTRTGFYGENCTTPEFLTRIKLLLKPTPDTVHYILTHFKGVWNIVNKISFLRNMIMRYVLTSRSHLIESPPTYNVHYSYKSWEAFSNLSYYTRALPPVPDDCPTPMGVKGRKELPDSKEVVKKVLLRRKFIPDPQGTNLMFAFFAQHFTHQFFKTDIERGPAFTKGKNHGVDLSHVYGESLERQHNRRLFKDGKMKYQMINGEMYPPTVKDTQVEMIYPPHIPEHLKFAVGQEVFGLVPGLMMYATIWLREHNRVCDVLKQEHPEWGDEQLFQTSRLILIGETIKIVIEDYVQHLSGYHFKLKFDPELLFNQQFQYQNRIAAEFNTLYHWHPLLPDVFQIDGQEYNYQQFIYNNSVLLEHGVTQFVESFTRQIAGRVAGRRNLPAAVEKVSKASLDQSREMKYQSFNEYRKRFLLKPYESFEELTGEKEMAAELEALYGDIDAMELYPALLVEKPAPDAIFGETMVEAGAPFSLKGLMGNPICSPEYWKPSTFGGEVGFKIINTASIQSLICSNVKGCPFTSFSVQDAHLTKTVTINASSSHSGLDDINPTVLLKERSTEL
Briefly: COX-2 isoenzyme inhibition (COX Inhibitor Screening Assay, enzyme immunoassay). In kind it is biochemical. Conditions: for COX-2 inhibition: 10 µM, incubation 10 min, isolated enzyme. The procedure:
as §4, §5, §6

Data set [4] can be described thus: Evaluation of stability by capillary electrophoresis. The data set is classed as physicochemical. The source says: Capillary electrophoresis (CE) was employed in order to determine the stability of the anionic platinum(II) complexes in aqueous media. Therefore, a method was established that allowed the detection of the respective complex and possible degradation products in a short period of time (for further information on the setup see Section 4). Methanol was chosen as a non-coordinating co-solvent for the sample solutions (final amount of methanol: 50%) in order to guarantee the solubility of decomposition products. In contrast to HPLC analysis, it was possible to separate the platinum complex (tm = 6.3 min) from the free ligand (tm = 4.4 min) using a 50 mM sodium tetraborate solution (pH = 9.3) as the background electrolyte (temperature: 25 °C; UV-detection: 230 nm; capillary: fused silica 64.5 cm × 75 µm, effective length 56 cm; 20 kV). […] The reactions followed pseudo-first order kinetics (R^2 ≥ 0.99) under the experimental conditions that were implemented.
A 50 mM sodium tetraborate solution with a pH of 9.3 (adjusted with 1 M NaOH solution) was used as the background electrolyte (BGE). Prior to the first utilization new capillaries were washed with 1 M NaOH solution (45 min), water (45 min) and BGE (45 min). Samples were injected into the capillary via hydrodynamic mode (50 mbar for 2 s). The capillary was thermostated at 25 °C, whereas the autosampler was kept at 37 °C by an external water bath. The separation voltage was 20 kV and the detection wavelength was set to 230 nm. The required run time was 10 min. The capillary was flushed consecutively with 0.1 M NaOH solution (3 min), water (3 min), and BGE (5 min) before each measurement. For the purpose of stability testing, the complexes were dissolved in methanol and diluted 1:1 (v/v) with water, 1.8% aqueous NaCl solution, or double-concentrated PBS to a final concentration of 1 mM. Every experiment was performed in triplicate. The half-lives are presented as mean ± standard deviation. All of the samples, buffers, and washing solutions were membrane filtered (0.22 µm porosity) and degassed by ultrasonication prior to usage.

In data set [5] the test system is HT-29 colon carcinoma cells. Briefly: Antiproliferative effects, crystal violet cell biomass assay, HT-29. In kind it is cell-based. The conditions noted are these: for IC50: 72 h incubation, crystal violet. The procedure:
as §1, §2, §3

Data set [6] in a line: Stability in other media (aqueous conditions, cell culture medium, DMSO). The data set is classed as physicochemical. Conditions: degraded immediately after addition.
On the set-up of data set [7]: method as in doi:10.1002/zaac.19603050315. Conditions: degrades in a redox reaction building acetaldehyde and Pt(0); cited from earlier work.
[8] abbreviates: methanol/water 1:1, 1 mM, 37 °C.
Where [9] appears, read: up to a concentration of 100 µM.

Here are results for seven compounds from paper PMC6032411, “Synthesis and Biological Evaluation of Zeise’s Salt Derivatives with Acetylsalicylic Acid Substructure” (International Journal of Molecular Sciences, 2018).

One may read the IC50 as the point on the concentration scale where inhibition reaches its midpoint. As usually defined, the inhibition is the relative decrease from the control value, in per cent.

Turning to “Potassium {trichlorido[η^2-(pent-4-en-1-yl)-2-acetoxybenzoate]platinate(II)} [Compound 3a]”, the figures for the IC50 in data set [1] and in data set [5] were 37.4 ± 2.5 µM and 44.2 ± 3.4 µM, respectively. The COX-1 inhibition in data set [2] came out at 93.8%. In addition, the COX-2 inhibition in data set [3] is 15.3%. The “half-live (τ1/2)” value in data set [4] (setting [8]) was found to be 73.5 ± 4.7 h.

For “Potassium {trichlorido[η^2-(hex-5-en-1-yl)-2-acetoxybenzoate]platinate(II)} [Compound 4a]”, the IC50 in data set [1] came out at 43.7 ± 5.7 µM; in data set [5], 41.4 ± 0.3 µM. In data set [2], this compound came in with a COX-1 inhibition of 96.6%. Besides, the COX-2 inhibition in data set [3] is recorded as 33.0%. The “half-live (τ1/2)” value in data set [4] (setting [8]) was found to be 55.4 ± 4.0 h.

Consider `C=C.[Cl-].[Cl-].[Cl-].[K+].[Pt+2]` [Zeise’s salt, potassium trichlorido[ethylene]platinate(II)], for which the IC50 in data set [1] and in data set [5] was at least 50 µM in each case. Further, in data set [2], the COX-1 inhibition was found to be 83.8%. For the same compound, in data set [6], the “stability in cell culture medium” value is recorded as “not stable”. Besides, the “stability under aqueous conditions” value in data set [7] was “very unstable”. The compound further displayed a COX-2 inhibition in data set [3] of 11.3%.

Regarding “Potassium {trichlorido[η^2-(prop-2-en-1-yl)-2-acetoxybenzoate]platinate(II)} [Compound 1a]”, the IC50 in data set [1] is at least 50 µM; in data set [5] it was 49.7 ± 1.8 µM. In data set [2], the COX-1 inhibition turned out to be 67.3%. The compound also yielded a COX-2 inhibition in data set [3] of 17.4%. In addition, the stability in methanol entry in data set [4] (methanol, 48 h) is given as “stable”. In addition, in data set [4] (setting [8]), the “half-live (τ1/2)” value turned out to be 0.595 ± 0.01 h.

As for `N.N.[Cl][Pt][Cl]` [Cisplatin, reference compound], the IC50 in data set [1] stood at 3.7 ± 0.3 µM; in data set [5] it was 2.6 ± 0.1 µM.

With “Potassium {trichlorido[η^2-(but-3-en-1-yl)-2-acetoxybenzoate]platinate(II)} [Compound 2a]”, the IC50 in data set [1] is 30.1 ± 1.5 µM; in data set [5] it was 31.4 ± 0.4 µM. This compound also showed a COX-1 inhibition in data set [2] of 70.0%. Moreover, the COX-2 inhibition in data set [3] came out at 28.7%. In addition, the “recovery of the intact complex” value in data set [4] (154 mM Cl− in 50% methanol/water, after 168 h) turned out to be 80.3 ± 3.2%. Besides, the “half-live (τ1/2)” value in data set [4] (PBS pH 7.4 in methanol/water, degraded to Pt-Butene-SA) is on record as 7.95 ± 0.09 h; in data set [4] (setting [8]) it was 69.6 ± 3.0 h.

`CC(=O)Oc1ccccc1C(=O)O` [ASA, acetylsalicylic acid]: the IC50 in data set [1] (Homo sapiens, MCF7) was at least 50 µM; in data set [5] (Homo sapiens, HT-29) it was at least 50 µM. Moreover, the “antiproliferative activity against MCF-7” value in data set [1] (setting [9]) is “inactive”. The compound also gave a COX-1 inhibition in data set [2] of 29.2%. Also, the inhibition at 10 µM in data set [3] (read-out: COX-2 inhibition) was found to be 1%. The “antiproliferative activity against HT-29” value in data set [5] (setting [9]) was “inactive”.
